Measurements published in US20250027130A1, “Nucleic Acid Synthesis and Sequencing Using Tethered Nucleoside Triphosphates” (The Regents of the University of California, priority 2022, published 2025).
“Also recorded” adds a separate entry of the source.

Tests used:
[1] = system: DH10B cells co-expressing MaFRSA; experiment: In vivo incorporation at position 200 of sfGFP, MaFRSA (intact mass, GluC LC-MS/MS); type: cell-based, E. coli
MaPylRS = experiment: RNAse A/LC-HRMS assay of Ma-tRNA^Pyl acylation by MaPylRS; type: biochemical, Methanomethylophilus alvus; conditions: some statements also rest on intact tRNA analysis
MaFRSA (N166A, V168A) [2] = experiment: RNAse A/LC-HRMS assay of Ma-tRNA^Pyl acylation by MaFRSA; type: biochemical, Methanomethylophilus alvus; conditions: RNAse A/LC-HRMS and intact tRNA analysis
MaFRS1 (N166A, V168L) [3] = experiment: RNAse A/LC-HRMS assay of Ma-tRNA^Pyl acylation by MaFRS1; type: biochemical, Methanomethylophilus alvus; conditions: some statements also rest on intact tRNA analysis
MaFRS2 (N166A, V168K) [4] = experiment: RNAse A/LC-HRMS assay of Ma-tRNA^Pyl acylation by MaFRS2; type: biochemical, Methanomethylophilus alvus; conditions: some statements also rest on intact tRNA analysis
MaFRS1 (N166A, V168L) [5] = experiment: Intact tRNA mass spectrometry: acylation of Ma-tRNA^Pyl by MaFRS1; type: biochemical, Methanomethylophilus alvus; conditions: MaFRS1 2.5 μM, Ma-tRNA^Pyl 25 μM, 37° C., 2 h; average of 3 technical replicates
MaFRS2 (N166A, V168K) [6] = experiment: Intact tRNA mass spectrometry: acylation of Ma-tRNA^Pyl by MaFRS2; type: biochemical, Methanomethylophilus alvus; conditions: MaFRS2 2.5 μM, Ma-tRNA^Pyl 25 μM, 37° C., 2 h; average of 3 technical replicates
MaFRSA (N166A, V168A) [7] = experiment: Intact tRNA mass spectrometry: acylation of Ma-tRNA^Pyl by MaFRSA; type: biochemical, Methanomethylophilus alvus; conditions: for Yield of diacylated Ma-tRNA^Pyl / Yield of monoacylated Ma-tRNA^Pyl: MaFRSA 2.5 μM, Ma-tRNA^Pyl 25 μM, 37° C., 2 h, average of 3 technical replicates
MaFRSA = experiment: Malachite green assay to monitor adenylation by MaFRSA; type: biochemical, Methanomethylophilus alvus
Procedure: Malachite green assay to monitor adenylation. Enzymatic adenylation reactions were monitored using malachite green using a previous protocol with modifications^52. Each adenylation reaction (60 μL) contained the following components: 200 mM HEPES-K (pH 7.5), 4 mM DTT, 10 mM MgCl2, 0.2 mM ATP, 0-10 mM substrate, 4 U/mL E. coli inorganic pyrophosphatase (NEB), and 2.5 μM enzyme (MaFRS1 or MaFRSA). Adenylation reactions were incubated at 37° C. in a dry-air incubator. Aliquots (10 μL) were withdrawn after 0, 5, 10, 20, and 30 min and quenched upon addition to an equal volume of 20 mM EDTA (pH 8.0) on ice. Once all aliquots were withdrawn, 80 μL of Malachite Green Solution (Echelon Biosciences) was added to each aliquot and the mixture incubated at RT for 30 min. After shaking for 30 sec to remove bubbles, the absorbance at 620 nm was measured on a Synergy HTX plate reader (BioTek). The absorbance was then converted to phosphate concentration using a phosphate standard curve (0-100 μM) and plotted over time to determine turnover numbers.

[8] = samples vi-vii, DH10B, defined media lacking glutamate, 1 mM substrate

Row | Structure (SMILES) | Substrate activity for MaFRSA (in words) (MaFRSA (N166A, V168A) [2]) | Substrate activity for MaFRS1 (in words) (MaFRS1 (N166A, V168L) [3]) | Substrate activity for MaFRS2 (in words) (MaFRS2 (N166A, V168K) [4]) | Yield of diacylated Ma-tRNA^Pyl (MaFRS1 (N166A, V168L) [5]) [%] | Yield of monoacylated Ma-tRNA^Pyl (MaFRS1 (N166A, V168L) [5]) [%] | Yield of diacylated Ma-tRNA^Pyl (MaFRS2 (N166A, V168K) [6]) [%] | Yield of monoacylated Ma-tRNA^Pyl (MaFRS2 (N166A, V168K) [6]) [%] | Yield of diacylated Ma-tRNA^Pyl (MaFRSA (N166A, V168A) [7]) [%] | Yield of monoacylated Ma-tRNA^Pyl (MaFRSA (N166A, V168A) [7]) [%] | also measured
1 | N[C@@H](Cc1cccc(C(F)(F)F)c1)C(=O)O [Sample 20] |  |  |  |  |  |  |  |  |  | sfGFP containing variant 20 at position 200 [1, 8]: 97.14%
2 | CC(C)(C)OC(=O)NCCCC[C@@H](N)C(=O)O [Substrate 5, N^ε-(tert-butoxycarbonyl)-D-lysine] |  |  |  |  |  |  |  |  |  | Substrate activity for MaPylRS (in words) (MaPylRS): No reactivity was detected
3 | N[C@@H](Cc1ccccc1)C(=O)O [Substrate 7, L-phenylalanine, reference compound] | low activity |  |  |  |  |  |  |  |  | 
4 | N[C@H](Cc1ccccc1)C(=O)O [Substrate 11, D-phenylalanine] |  | no reactivity was detected | no reactivity was detected |  |  |  |  |  |  | 
5 | CC(C)(C)OC(=O)NCCCCC(C(=O)O)C(=O)O [Substrate 16] |  |  |  |  |  |  |  |  |  | Substrate activity for MaPylRS (in words) (MaPylRS): accepts; also recorded: measurable substrate
6 | Cc1cccc(CC(C(=O)O)C(=O)O)c1 [Substrate 17] | high activity | accept; also recorded: excellent substrates | accept; also recorded: excellent substrates | 3.64 | 49.8 | 0 | 52.0 | 1.54 | 9.48 | 
7 | O=C(O)C(Cc1cccc(C(F)(F)F)c1)C(=O)O [Substrate 18] | highest activity | accept; also recorded: excellent substrates | accept; also recorded: excellent substrates | 9.24 | 59.3 | 0 | 26.1 | 0 | 31.4 | Acylation product in competition of L-Phe 7 and 18 (MaFRSA (N166A, V168A) [7]; MaFRSA incubated with equal concentration (10 mM) of L-Phe 7 and meta-CF3-2-BMA 18): Only the acylation product of 18 and Ma-tRNA^Pyl is observed; also recorded: only the malonyl product (18-tRNA^Pyl) is observed; Rate of adenylation as % of the rate observed for meta-CF3-L-Phe (MaFRSA): 36%
8 | O=C(O)C(Cc1cccc(Br)c1)C(=O)O [Substrate 19] | high activity | accept; also recorded: excellent substrates | accept; also recorded: excellent substrates | 10.8 | 37.4 | 0 | 32.7 | 0 | 22.3 | 
9 | N[C@@H](Cc1cccc(C(F)(F)F)c1)C(=O)O [Substrate 20] |  |  |  |  |  |  |  |  |  | Intact mass of expressed sfGFP variant (in words) ([1]; E. coli DH10B, 1 mM monomer, sfGFP-200TAG): mass corresponded to the presence of a single trifluoromethyl phenylalanine side chain; sfGFP containing variant 1 at position 200 [1, 8]: 0.00%; sfGFP containing variant 2 at position 200 [1, 8]: 0.00%; sfGFP containing variant 21 at position 200 [1, 8]: 0.63%; sfGFP containing variant A at position 200 [1, 8]: 0.14%; sfGFP containing variant F at position 200 [1, 8]: 0.15%; sfGFP containing variant K at position 200 [1, 8]: 0.14%; sfGFP containing variant Q at position 200 [1, 8]: 0.62%; sfGFP containing variant W at position 200 [1, 8]: 1.02%; sfGFP containing variant Y at position 200 [1, 8]: 0.15%
